Source: ChEMBL document CHEMBL5518169, “Discovery of a 1,6-naphthyridin-4-one-based AXL inhibitor with improved pharmacokinetics and enhanced in vivo antitumor efficacy” (Eur J Med Chem, 2024)
Active and inactive are the calls of the source. The rule behind the calls is not given here.

What was measured:
[1] = Metabolic stability in human liver microsomes assessed as half life preincubated with compound for 10 mins followed by NADPH addition and measured after 60 mins by LC-MS/MS analysis; assay type: ADME, Microsome; conditions: time 70 min
[2] = Metabolic stability in human liver microsomes assessed as parent compound remaining preincubated with compound for 10 mins followed by NADPH addition and measured after 60 mins by LC-MS/MS analysis; assay type: ADME, Microsome; conditions: time 70 min, read-out: Stability
[3] = Tmax in Sprague-Dawley rat at 3 mg/kg, po measured upto 24 hrs by LC-MS/MS analysis; assay type: ADME, organism-based; conditions: in vivo
[4] = Half life in Sprague-Dawley rat at 3 mg/kg, po measured upto 24 hrs by LC-MS/MS analysis; assay type: ADME, organism-based; conditions: in vivo
[5] = Cmax in Sprague-Dawley rat at 3 mg/kg, po measured upto 24 hrs by LC-MS/MS analysis; assay type: ADME, organism-based; conditions: in vivo
[6] = AUC (0 to infinity) in Sprague-Dawley rat at 3 mg/kg, po measured upto 24 hrs by LC-MS/MS analysis; assay type: ADME, organism-based; conditions: in vivo
[7] = MRT (0 to infinity) in Sprague-Dawley rat at 3 mg/kg, po measured upto 24 hrs by LC-MS/MS analysis; assay type: ADME, organism-based; conditions: in vivo
[8] = biological target: T1, Tyrosine-protein kinase receptor UFO (Mus musculus) (UniProt Q00993); assay: Inhibition of AXL phosphorylation in mouse BaF3/TEL-AXL cells incubated for 2 hrs by Western blot analysis; assay type: cell-based; conditions: dose 2-500 nM
T1 sequence (whole entry): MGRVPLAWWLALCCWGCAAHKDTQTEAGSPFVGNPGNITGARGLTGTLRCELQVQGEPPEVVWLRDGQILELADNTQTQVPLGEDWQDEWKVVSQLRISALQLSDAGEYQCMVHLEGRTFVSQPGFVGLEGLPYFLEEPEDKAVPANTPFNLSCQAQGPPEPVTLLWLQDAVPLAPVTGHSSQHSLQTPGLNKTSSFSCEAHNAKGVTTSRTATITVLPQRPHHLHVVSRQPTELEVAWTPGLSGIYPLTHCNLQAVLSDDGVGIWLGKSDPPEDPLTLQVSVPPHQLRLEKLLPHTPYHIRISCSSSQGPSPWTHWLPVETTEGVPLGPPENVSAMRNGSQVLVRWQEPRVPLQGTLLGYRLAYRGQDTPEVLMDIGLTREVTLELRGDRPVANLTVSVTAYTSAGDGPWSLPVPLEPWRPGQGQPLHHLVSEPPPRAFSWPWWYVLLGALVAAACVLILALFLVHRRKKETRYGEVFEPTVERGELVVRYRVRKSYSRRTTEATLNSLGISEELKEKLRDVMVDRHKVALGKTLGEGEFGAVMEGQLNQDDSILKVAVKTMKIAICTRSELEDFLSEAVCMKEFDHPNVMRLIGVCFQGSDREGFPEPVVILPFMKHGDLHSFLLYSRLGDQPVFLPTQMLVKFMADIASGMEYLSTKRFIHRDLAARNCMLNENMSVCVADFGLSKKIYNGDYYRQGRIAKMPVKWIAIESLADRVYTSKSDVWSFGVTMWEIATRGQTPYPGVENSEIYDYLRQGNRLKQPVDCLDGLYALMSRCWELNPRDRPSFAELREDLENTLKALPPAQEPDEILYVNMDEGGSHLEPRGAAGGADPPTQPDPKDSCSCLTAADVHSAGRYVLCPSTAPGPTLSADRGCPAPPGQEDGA

[9] = biological target: RAC-alpha serine/threonine-protein kinase (Mus musculus) (UniProt P31750); assay: Inhibition of AKT phosphorylation in mouse BaF3/TEL-AXL cells incubated for 2 hrs by Western blot analysis; assay type: cell-based; conditions: dose 2-500 nM
[10] = Antitumor activity against mouse BaF3/TEL-AXL cells xenografted in mouse assessed as tumor growth inhibition at 25 mg/kg, po administered for 7 days; assay type: functional; conditions: 168 h, time 7 day, read-out: TGI
[11] = Antitumor activity against mouse BaF3/TEL-AXL cells xenografted in mouse assessed as tumor growth inhibition at 50 mg/kg, po administered for 7 days; assay type: functional; conditions: 168 h, time 7 day, read-out: TGI
[12] = Antitumor activity against mouse BaF3/TEL-AXL cells xenografted in mouse assessed as tumor growth inhibition at 100 mg/kg, po administered for 7 days; assay type: functional; conditions: 168 h, time 7 day, read-out: TGI
[13] = tested on: BaF3/TEL-AXL; assay: Antitumor activity against mouse BaF3/TEL-AXL cells xenografted in mouse assessed as tumor regression at 50 to 100 mg/kg, po administered for 7 days; assay type: functional, organism-based; conditions: dose 50-100 mg/kg, time 7.0 day
[14] = Toxicity in mouse xenografted with mouse BaF3/TEL-AXL cells assessed as body weight loss at 25 to 100 mg/kg, po administered for 7 days; assay type: organism-based; conditions: in vivo, 168 h, dose 25-100 mg/kg, time 7 day
[15] = cells; conditions: Mus musculus, BaF3/TEL-AXL, 72 h
Description: Antiproliferative activity against mouse BaF3/TEL-AXL cells assessed as inhibition of cell proliferation incubated for 72 hrs by CCK-8 assay

[16] = tested on: MKN-45; assay: cells; conditions: Homo sapiens, MKN-45, 72 h
Description: Antiproliferative activity against human MKN-45 cells assessed as inhibition of cell proliferation incubated for 72 hrs by CCK-8 assay

[17] = Toxicity in mouse xenografted with mouse BaF3/TEL-AXL cells assessed as body weight loss at 50 mg/kg, po administered for 7 days; assay type: organism-based; conditions: in vivo, 168 h, time 7 day
[18] = biological target: T2, Tyrosine-protein kinase receptor UFO (Homo sapiens, UniProt P30530)
T2 sequence (P30530 whole entry): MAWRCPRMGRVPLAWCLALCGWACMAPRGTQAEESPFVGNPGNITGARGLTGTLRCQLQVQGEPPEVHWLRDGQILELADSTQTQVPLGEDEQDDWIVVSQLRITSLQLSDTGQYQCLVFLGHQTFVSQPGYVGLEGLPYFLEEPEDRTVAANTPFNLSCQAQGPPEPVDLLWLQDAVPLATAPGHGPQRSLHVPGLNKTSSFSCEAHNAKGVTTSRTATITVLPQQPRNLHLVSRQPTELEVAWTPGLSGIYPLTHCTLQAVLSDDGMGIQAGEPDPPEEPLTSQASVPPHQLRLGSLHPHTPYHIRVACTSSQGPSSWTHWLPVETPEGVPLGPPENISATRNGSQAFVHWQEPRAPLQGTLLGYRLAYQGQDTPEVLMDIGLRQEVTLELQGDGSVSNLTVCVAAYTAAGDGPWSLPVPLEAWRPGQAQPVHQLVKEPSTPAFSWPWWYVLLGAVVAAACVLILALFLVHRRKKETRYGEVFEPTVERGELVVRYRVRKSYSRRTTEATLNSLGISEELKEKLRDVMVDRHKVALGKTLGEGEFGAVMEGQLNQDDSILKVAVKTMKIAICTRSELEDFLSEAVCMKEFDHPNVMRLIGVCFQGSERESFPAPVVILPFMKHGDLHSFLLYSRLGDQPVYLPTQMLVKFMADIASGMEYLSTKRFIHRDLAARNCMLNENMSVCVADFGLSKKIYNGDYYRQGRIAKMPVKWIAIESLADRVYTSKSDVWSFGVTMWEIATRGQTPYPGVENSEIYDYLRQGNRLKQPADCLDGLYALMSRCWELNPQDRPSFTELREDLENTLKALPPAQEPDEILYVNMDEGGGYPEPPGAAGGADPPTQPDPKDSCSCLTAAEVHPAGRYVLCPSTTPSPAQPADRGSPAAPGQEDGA
Description: Inhibition of AXL (unknown origin) by ELISA analysis

Sequence of RAC-alpha serine/threonine-protein kinase (Mus musculus) (P31750 whole entry): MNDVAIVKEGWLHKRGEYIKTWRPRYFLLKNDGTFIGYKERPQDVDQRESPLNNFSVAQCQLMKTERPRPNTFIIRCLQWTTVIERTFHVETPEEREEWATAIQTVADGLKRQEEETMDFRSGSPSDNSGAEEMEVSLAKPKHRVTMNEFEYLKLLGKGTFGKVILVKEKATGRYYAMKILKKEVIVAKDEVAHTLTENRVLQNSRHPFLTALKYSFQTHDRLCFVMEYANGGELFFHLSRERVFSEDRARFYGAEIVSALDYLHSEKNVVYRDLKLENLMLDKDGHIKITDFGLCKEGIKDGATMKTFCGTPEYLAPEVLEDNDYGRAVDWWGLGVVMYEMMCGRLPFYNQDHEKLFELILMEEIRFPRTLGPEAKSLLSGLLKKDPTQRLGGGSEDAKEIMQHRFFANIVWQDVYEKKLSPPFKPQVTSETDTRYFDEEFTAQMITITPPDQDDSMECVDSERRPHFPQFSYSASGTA

## CC(C)n1cc(-c2ccc(F)cc2)c(=O)c2c(Nc3ccc(-c4cc(-c5cnn(C)c5)cnc4N)c(F)c3)nccc21
[1]
  half-life: 2.57 h
[2]
  remaining at 1 h: 76.3%
[3]
  Tmax: 2 h
[4]
  half-life: 10.1 h
[5]
  Cmax: 2910 ng/mL
[6]
  AUC(0-inf): 59800 ng·h/mL
[7]
  MRT inf: 16.5 h
[8]
  inhibition: Dose-Dependent Effect
[9]
  inhibition: Dose-Dependent Effect
[10]
  inhibition in vivo at 25 mg/kg: 89.8%
[11]
  inhibition in vivo at 50 mg/kg: 104%
[12]
  inhibition in vivo at 100 mg/kg: 105%
[13]
  Activity: Active
[14]
  Activity: Non-Toxic
[15]
  IC50: < 1 nM
[16]
  IC50: > 100 nM

## Nc1nc(Nc2ccc3c(c2)CC[C@@H](N2CCCC2)CC3)nn1-c1cc2c(nn1)-c1ccccc1CCC2 [BEMCENTINIB]
[11]
  inhibition in vivo at 50 mg/kg: 107%
[17]
  Activity: Non-Toxic

## CC(C)n1cc(C(=O)Nc2cc(F)c(-c3c[nH]c4ncnc(N)c34)cc2F)c(=O)c(-c2ccc(F)cc2)c1
[18]
  IC50: < 0.2 nM

## CC(C)n1cc(-c2ccc(F)cc2)c(=O)c2c(Nc3ccc(-c4cn(C)c5ncnc(N)c45)c(F)c3)nccc21
[1]
  half-life: 0.765 h
[2]
  remaining at 1 h: 47%
[3]
  Tmax: 1.5 h
[4]
  half-life: 3.82 h
[5]
  Cmax: 187 ng/mL
[6]
  AUC(0-inf): 1300 ng·h/mL
[7]
  MRT inf: 5.96 h
[15]
  IC50: 1 nM
[16]
  IC50: > 100 nM
